Measurements: US20250120932A1, “PHARMACEUTICAL COMPOSITION” (NEUROPRO THERAPEUTICS, INC., priority 2021, published 2025)
Values joined by “and” are separate entries in the source; they are usually repeats but may differ in a detail not shown here. Equal entries are not always repeated. Where two headings read alike, the source gives them in different places.

Experiments:
[1] = Crossover pharmacokinetic study of Bumetanide Dibenzylamide formulations (IN, SL, IM, PO, SC, IR) in Beagle dogs, plasma LC-MS/MS; assay type: in vivo; details: for half-life: read-out: t½ (converted)
Description: Male and female Beagle dogs are assigned to two groups with 2 males and 2 females in each group. The study is conducted in 3 legs with Leg 1 consisting of IM and SL administration, Leg 2 consisting of IN and PO administration, and Leg 3 consisting of SC and IR administration.
During intranasal administration, the composition is administered by gently tilting the animals head back and the intranasal dose is delivered via a syringe and atomizer. During sublingual administration, the composition is administered via a quick dissolving tablet. The tablet is placed in the sublingual space and the mouth held shut for approximately 60-90 seconds. After one minute, the mouth of the animal is opened to confirm that the tablet has fully dissolved. During intramuscular administration, the composition is administered into the bicep femoris (rear thigh). The dose site is gently shaved prior to dosing. A syringe with a 25 g needle is utilized. During oral administration, the composition is administered via three capsules placed at the back of the animal's mouth and the placement is followed by a 10 mL drinking water flush to assure that the animal swallowed the capsules. During subcutaneous administration, the composition is administered into the dorsal subcutaneous space directly at the scruff of the neck of the animal. The dose site is gently shaved prior to dosing. A syringe with a 25 g needle is utilized. During intrarectal administration, the composition is administered by gently placing a 1 cc syringe in the rectum of the animal.
All animals are fasted for approximately 12 hours prior to dosing. Animals are fed four hours post dosing with water offered ad libitum throughout the study. All animals completed the study. […] Blood and urine samples are collected out to 24 hours.
Blood sample are collected from the jugular vein, or other suitable vessel via direct venipuncture, placed into a chilled tube containing K2EDTA as the anticoagulant, and inverted several times to mix. Blood samples are kept on wet ice until centrifugation.
The assay is verified with respect to standard bioanalytical methodology including acceptable accuracy and precision based upon quality control sample analysis and results. The range of the method for both analytes is from about 0.250 ng/ml to about 250 ng/mL.
The PK parameters defined in Table 10 are calculated by non-compartmental methods using individual animal concentration-time data. […] Nominal blood sampling times are used in the analysis. […] Individual below quantitation limits (BQL) results are set to zero for all calculations. No animals are excluded from the analysis. In one aspect, non-compartmental pharmacokinetic analysis provides observed or calculated values of Cmax, Tmax, and AUClast for all animals and estimates of AUCinf and CL/F for those animals where a terminal phase half-life (t1/2) could be estimated.

[2] = Nasal solution solubility evaluation in solvent/co-solvent systems (HPLC-UV); assay type: physicochemical; details: organic solvent or mixture, thermodynamic from solid; Caprylocaproyl Polyoxylglycerides (Labrasol ALF), Composition 8
Description: The solvents were chosen from a group consisting of Caprylocaproyl Polyoxylglycerides (Labrasol ALF), propylene glycol, PEG-400, vitamin E TPGS, ethanol, water, and any combination thereof.
50 g stock solutions of each solvent system were prepared. The active solutions 3.0 mL of each solvent was aliquoted to separate 8 mL clear glass vials. […] Every 30 minutes the solutions were inspected. […] This process was repeated until visible saturation of all solvent systems was obtained. Prior to analysis, the samples were centrifuged at 5,000 RPM for 3 minutes and filtered through a 0.45 μm nylon syringe filter to remove excess solids.
The dose calculations included in Table 42 are based on 75% of the concentration at saturation. This is to reduce the risk of precipitation/crystallization due to environmental fluctuations. Additionally, two dose volumes (0.2/0.5 mL) were selected in accordance with the standard range for nasal delivery. The total dose illustrated is based on the equivalent volume delivered to each nostril, 0.4-1.0 mL total per dose.

[3] = both sexes, Beagle, dog, plasma, po, 30 mg, PO capsules
[4] = both sexes, Beagle, dog, plasma, sc, 15 mg

**Q.** For `CCCCNc1cc(C(=O)N(Cc2ccccc2)Cc2ccccc2)cc(S(N)(=O)=O)c1Oc1ccccc1` [Bumetanide Dibenzylamide, N, N-dibenzyl 3-aminosulfonyl-5-butylamino-4-phenoxybenzamide], which AUCinf ([1]; IN, 15 mg) is on record?
**A.** 234 ng·h/mL and 224 ng·h/mL and 164 ng·h/mL and 221 ng·h/mL

**Q.** What about the CL/F ([1]; IN, 15 mg) of the same molecule?
**A.** 64.1 L/h and 66.8 L/h and 91.5 L/h and 67.7 L/h

**Q.** And the “Plasma Bumetanide Dibenzylamide concentration” value ([1]; IN, 15 mg, 24 h)?
**A.** 3.15 ng/mL and 2.07 ng/mL and 1.59 ng/mL

**Q.** What about the “Plasma Bumetanide Dibenzylamide concentration” value ([1]; IN, 15 mg, 24 h, mean) of the same molecule?
**A.** 2.31 ng/mL

**Q.** And the CL/F ([1]; IN, 15 mg, mean)?
**A.** 72.5 L/h

**Q.** And the “Mean concentrations of Bumetanide Dibenzylamide” value ([1]; IR, 30 mg, at all times after dosing)?
**A.** less than 10 ng/mL

**Q.** What about the AUCinf ([1]; PO capsules, 30 mg) of the same molecule?
**A.** 980 ng·h/mL and 698 ng·h/mL and 666 ng·h/mL and 910 ng·h/mL

**Q.** And the AUClast ([1]; PO capsules, 30 mg)?
**A.** 675 ng·h/mL and 639 ng·h/mL and 893 ng·h/mL

**Q.** What about the CL/F ([1]; PO capsules, 30 mg) of the same molecule?
**A.** 30.6 L/h and 43.0 L/h and 45.0 L/h and 33.0 L/h

**Q.** And the Cmax ([1]; PO capsules, 30 mg)?
**A.** 280 ng/mL and 158 ng/mL and 175 ng/mL and 259 ng/mL

**Q.** And the t½ ([1]; PO capsules, 30 mg)?
**A.** 5.62 h and 6.79 h and 5.10 h

**Q.** And the “Plasma Bumetanide Dibenzylamide concentration” value ([1]; PO capsules, 30 mg, 2 h)?
**A.** 280 ng/mL and 158 ng/mL and 175 ng/mL

**Q.** And the “Plasma Bumetanide Dibenzylamide concentration” value ([1]; PO capsules, 30 mg, 2 h, mean)?
**A.** 218 ng/mL

**Q.** What about the “Plasma Bumetanide Dibenzylamide concentration” value ([1]; PO capsules, 30 mg, 4 h) of the same molecule?
**A.** 85.3 ng/mL and 68.7 ng/mL and 56.9 ng/mL

**Q.** And the “Plasma Bumetanide Dibenzylamide concentration” value ([1]; PO capsules, 30 mg, 4 h, mean)?
**A.** 76.7 ng/mL

**Q.** What about the “Plasma Bumetanide Dibenzylamide concentration” value ([1]; PO capsules, 30 mg, 8 h) of the same molecule?
**A.** 21.2 ng/mL and 21.9 ng/mL and 15.7 ng/mL

**Q.** And the “Plasma Bumetanide Dibenzylamide concentration” value ([1]; PO capsules, 30 mg, 8 h, mean)?
**A.** 20.1 ng/mL

**Q.** And the “Plasma Bumetanide Dibenzylamide concentration” value ([1]; PO capsules, 30 mg, 12 h)?
**A.** 8.65 ng/mL and 10.5 ng/mL and 7.91 ng/mL

**Q.** And the “Plasma Bumetanide Dibenzylamide concentration” value ([1]; PO capsules, 30 mg, 12 h, mean)?
**A.** 9.34 ng/mL

**Q.** What about the “Plasma Bumetanide Dibenzylamide concentration” value ([1]; PO capsules, 30 mg, 24 h) of the same molecule?
**A.** 2.86 ng/mL and 2.84 ng/mL and 2.83 ng/mL

**Q.** What about the “Plasma Bumetanide Dibenzylamide concentration” value ([1]; PO capsules, 30 mg, 24 h, mean) of the same molecule?
**A.** 2.71 ng/mL

**Q.** What about the AUClast ([1]; PO capsules, 30 mg, mean) of the same molecule?
**A.** 791 ng·h/mL

**Q.** And the CL/F ([1]; PO capsules, 30 mg, mean)?
**A.** 37.9 L/h

**Q.** What about the t½ ([1]; PO capsules, 30 mg, mean) of the same molecule?
**A.** 5.85 h

**Q.** What about the AUCinf ([1]; SC, 15 mg) of the same molecule?
**A.** 286 ng·h/mL and 247 ng·h/mL and 158 ng·h/mL

**Q.** What about the AUClast ([1]; SC, 15 mg) of the same molecule?
**A.** 79.8 ng·h/mL and 129 ng·h/mL and 91.3 ng·h/mL

**Q.** And the CL/F ([1]; SC, 15 mg)?
**A.** 52.4 L/h and 64.8 L/h and 60.7 L/h and 94.7 L/h

**Q.** And the t½ ([1]; SC, 15 mg)?
**A.** 36.2 h and 22.2 h and 19.1 h

**Q.** And the “Plasma Bumetanide Dibenzylamide concentration” value ([1]; SC, 15 mg, 0 h)?
**A.** 1.65 ng/mL and 2.39 ng/mL and 1.55 ng/mL

**Q.** And the “Plasma Bumetanide Dibenzylamide concentration” value ([1]; SC, 15 mg, 0 h, mean)?
**A.** 1.75 ng/mL

**Q.** What about the “Plasma Bumetanide Dibenzylamide concentration” value ([1]; SC, 15 mg, 0.5 h) of the same molecule?
**A.** 2.76 ng/mL and 3.42 ng/mL and 1.81 ng/mL

**Q.** What about the “Plasma Bumetanide Dibenzylamide concentration” value ([1]; SC, 15 mg, 0.5 h, mean) of the same molecule?
**A.** 2.52 ng/mL

**Q.** What about the “Plasma Bumetanide Dibenzylamide concentration” value ([1]; SC, 15 mg, 8 h) of the same molecule?
**A.** 4.54 ng/mL and 7.47 ng/mL and 4.14 ng/mL

**Q.** What about the “Plasma Bumetanide Dibenzylamide concentration” value ([1]; SC, 15 mg, 8 h, mean) of the same molecule?
**A.** 5.71 ng/mL

**Q.** What about the “Plasma Bumetanide Dibenzylamide concentration” value ([1]; SC, 15 mg, 12 h) of the same molecule?
**A.** 3.35 ng/mL and 5.77 ng/mL and 3.22 ng/mL

**Q.** What about the “Plasma Bumetanide Dibenzylamide concentration” value ([1]; SC, 15 mg, 12 h, mean) of the same molecule?
**A.** 4.36 ng/mL

**Q.** What about the “Plasma Bumetanide Dibenzylamide concentration” value ([1]; SC, 15 mg, 24 h) of the same molecule?
**A.** 2.43 ng/mL and 4.30 ng/mL and 2.90 ng/mL

**Q.** And the “Plasma Bumetanide Dibenzylamide concentration” value ([1]; SC, 15 mg, 24 h, mean)?
**A.** 3.33 ng/mL

**Q.** What about the AUClast ([1]; SC, 15 mg, mean) of the same molecule?
**A.** 113 ng·h/mL

**Q.** What about the CL/F ([1]; SC, 15 mg, mean) of the same molecule?
**A.** 68.2 L/h

**Q.** And the t½ ([1]; SC, 15 mg, mean)?
**A.** 24.8 h

**Q.** What about the CL/F ([1]; SL, 30 mg) of the same molecule?
**A.** 1690 L/h

**Q.** What about the Tmax ([1]; SL, 30 mg) of the same molecule?
**A.** 1.00 h

**Q.** What about the Tmax ([1]; SL, 30 mg, mean) of the same molecule?
**A.** 1.50 h

**Q.** What about the adverse reactions ([1]; all routes, 15 or 30 mg) of the same molecule?
**A.** no adverse reactions are noted

**Q.** And the AUC(0-inf) ([1]; both sexes, Beagle, dog, plasma, 30 mg, IR)?
**A.** 55.1 ng·h/mL

**Q.** And the Cmax ([1]; both sexes, Beagle, dog, plasma, 30 mg, IR, 30 mg, read-out: mean Cmax)?
**A.** 8.44 ng/mL

**Q.** And the AUC(0-inf) ([1]; both sexes, Beagle, dog, plasma, 30 mg, SL)?
**A.** 17.7 ng·h/mL

**Q.** What about the Tmax ([1]; both sexes, Beagle, dog, plasma, 30 mg, SL, 30 mg, read-out: Tmax) of the same molecule?
**A.** 2 h

**Q.** What about the half-life ([1]; both sexes, Beagle, dog, plasma, 30 mg, SL, 30 mg) of the same molecule?
**A.** 5.26 h

**Q.** What about the AUC(0-inf) ([1]; both sexes, Beagle, dog, plasma, inhaled or intranasal, 15 mg, IN) of the same molecule?
**A.** 211 ng·h/mL

**Q.** And the AUC(0-inf) [1, 3]?
**A.** 814 ng·h/mL

**Q.** What about the AUC(0-t) [1, 3] of the same molecule?
**A.** 956 ng·h/mL

**Q.** And the Cmax ([1]; both sexes, Beagle, dog, plasma, po, 30 mg, PO capsules, 30 mg, read-out: Cmax)?
**A.** 218 ng/mL

**Q.** And the Tmax ([1]; both sexes, Beagle, dog, plasma, po, 30 mg, PO capsules, 30 mg, read-out: Tmax)?
**A.** 2 h

**Q.** And the half-life ([1]; both sexes, Beagle, dog, plasma, po, 30 mg, PO capsules, 30 mg)?
**A.** 5.89 h

**Q.** What about the AUC(0-inf) [1, 4] of the same molecule?
**A.** 231 ng·h/mL

**Q.** And the AUC(0-t) [1, 4]?
**A.** 153 ng·h/mL

**Q.** And the half-life ([1]; both sexes, Beagle, dog, plasma, sc, 15 mg, SC, 15 mg)?
**A.** 21.5 h

**Q.** And the solubility at 8 h [2]?
**A.** ~66 mg/mL
